From patent US9206200B2, “N-linked lactam M1 receptor positive allosteric mogulators” (Merck Sharp & Dohme Corp., priority 2011, dated 2015) come the findings set out here.

The target of one assay is T1, acetylcholine muscarinic M1 receptor (Homo sapiens, UniProt P11229).
T1 construct: expressed in transfected cells; host or cells: CHOnfat cells (CHO cells with an NFAT reporter) expressing hM1, kept under Geneticin selection
T1 sequence (P11229 1-460): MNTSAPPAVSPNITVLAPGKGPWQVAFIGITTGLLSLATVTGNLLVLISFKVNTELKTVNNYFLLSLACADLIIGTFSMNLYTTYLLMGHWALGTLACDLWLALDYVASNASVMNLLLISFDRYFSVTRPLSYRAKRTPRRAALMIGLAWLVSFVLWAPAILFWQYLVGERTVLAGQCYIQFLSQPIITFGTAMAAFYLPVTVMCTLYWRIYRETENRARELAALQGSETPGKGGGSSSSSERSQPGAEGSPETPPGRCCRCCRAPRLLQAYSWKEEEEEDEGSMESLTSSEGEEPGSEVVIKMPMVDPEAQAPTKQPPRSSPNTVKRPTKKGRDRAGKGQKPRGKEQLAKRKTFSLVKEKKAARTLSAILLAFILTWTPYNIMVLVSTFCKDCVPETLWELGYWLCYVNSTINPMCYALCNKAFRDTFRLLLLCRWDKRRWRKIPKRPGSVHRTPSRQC
Nature of the assay: muscarinic FLIPR assay: intracellular calcium in CHOnfat/hM1 cells, potentiation of EC20 acetylcholine. Format: cell-based. As to conditions: Table 1; CHOnfat/hM1 cells, FLIPR, EC20 acetylcholine (3 nM final); read-out: M1 Pot. As to the method:
The assay studies the effect of one or several concentrations of test compounds on basal or acetylcholine-stimulated Ca^2+ levels using FLIPR.
Compounds are prepared and subjected to a preincubation period of […]. Thereafter, a single EC20 concentration of acetylcholine is added to each well (3 nM final). The intracellular Ca^2+ level of each sample is measured and compared to an acetylcholine control to determine any modulatory activity.
Cells: CHOnfat/hM1, hM2, hM3 or hM4 cells are plated 24 hr before the assay at a density of 18,000 cells/well (100 μL) in a 384 well plate. CHOnfat/hM1 and CHOnfat/hM3 Growth Medium: 90% DMEM (Hi Glucose); 10% HI FBS; 2 mM L-glutamine; 0.1 mM NEAA; Pen-Strep; and 1 mg/ml Geneticin, are added. For M2Gqi5CHOnfat and M4Gqi5CHOnfat cells, an additional 600 ug/ml hygromycin is added.
Equipment: 384 well plate, 120 μl, addition plate; 96-well Whatman 2 ml Uniplate Incubator, 37° C., 5% CO2; Skatron EMBLA-384 Plate Washer; Multimek Pipetting System; Genesis Freedom 200 System; Mosquito System; Temo Nanolitre Pipetting System; and FLIPR^384 Fluorometric Imaging Plate Reader System are used.
Buffers. Assay Buffer: Hanks Balanced Salt Solution, with 20 mM Hepes, 2.5 mM Probenecid (Sigma P-8761) first dissolved in 1 N NaOH, 1% Bovine Serum Albumin (Sigma A-9647). Dye Loading Buffer: Assay Buffer plus 1% Fetal Bovine Serum and Fluo-4AM/Pluronic Acid Mixture. 2 mM Fluo-4AM ester stock in DMSO (Molecular Probes F-14202) Concentration of 2 μM in buffer for a final concentration of 1 μM in Assay. 20% Pluronic Acid Solution stock, with concentration of 0.04% in Buffer, 0.02% in Assay.
65 μL of 2 mM Fluo-4AM are mixed with 130 μL of 20% Pluronic Acid. The resulting solution and 650 μL FBS is added to the assay buffer for a total volume of 65 mL. Positive Controls: 4-Br-A23187: 10 mM in DMSO; final concentration 10 μM. Acetylcholine: 10 mM in water, working stock at both 20 μM and 30 μM in assay buffer, final concentration of 10 μM. This is used to check the maximum stimulation of the CHOK1/hM1 cells. 20 μM (2×) acetylcholine is added in the preincubation part of the assay, and the 30 μM (3×) stock is added in the second part. (EC20)Acetylcholine: 10 mM in water, working stock of 9 nM (3×), and final concentration in assay is 3 nM. This is used after the preincubation with test compounds. Addition of the EC20 Acetylcholine to each well with a test compound will ascertain any modulator activity. 24 wells contain 3 nM Acetylcholine alone as a control.
Determining Activity of Putative Compounds:
Screening Plate Compounds are titrated in 96-well plates (columns 2-11), 100% DMSO, started at a concentration of 15 mM (150× stock concentration), and 3-fold serial dilutions using Genesis Freedom200 System. Four 96-well plates are combined into a 384-well plate using Mosquito Nanolitre Pipetting System by transferring 1 μl of serial diluted compounds to each well, and 1 mM acetylcholine (100× stock concentration) were added as a control. Using Temo, 49 μl assay buffer is added to each well of the 384-well plate right before assay.
In a 96-well Whatman 2 ml Uniplate, 9 nM Acetylcholine (3×) is pipetted into wells corresponding to the screening compounds, and into control wells. The 30 μM acetylcholine control (3×) is added into control wells, and the 3× agonist plate is transferred into a 384 well plate.
Cells are washed three times with 100 μL of buffer, leaving […] of buffer in each well. Using Multimek, 30 μL of Dye Loading Buffer is added into each well and incubated at 37° C., 5% CO2 for up to one hr.
After 60 min, the cells are washed three times with 100 μL of buffer, leaving 30 μL of buffer in each well. The cell plate, screening plate, and agonist addition plates are placed on the platform in the FLIPR and the door closed. A signal test to check background fluorescence and basal fluorescence signal is performed. Laser intensity is adjusted if necessary.
In general terms: Calcium flux is commonly read through the fluorescence of an indicator in the cells.
For the compound `O=C1c2cc(CN3CCN(c4cc5ccccc5cn4)CC3)c3ccccc3c2CN1c1ccccc1F` [Example 84, 2-(2-fluorophenyl)-5-[(4-isoquinolin-3-ylpiperazin-1-yl)methyl]-1,2-dihydro-3H-benzo[e]isoindol-3-one], the EC50 turned out to be 3270 nM.
On the same count and under the same terms, the result for `N#CC1(c2ccccn2)CCN(Cc2cc3c(c4ccccc24)CN(C2CCOCC2)C3=O)CC1` [Example 54, 1-{[3-oxo-2-(tetrahydro-2H-pyran-4-yl)-2,3-dihydro-1H-benzo[e]isoindol-5-yl]methyl}-4-pyridin-2-ylpiperidine-4-carbonitrile] reads 279 nM; that for `N#CC1(c2ccccn2)CCN(Cc2cc3c(c4ccccc24)CN(c2ccccc2F)C3=O)CC1` [Example 62, 1-{[2-(2-fluorophenyl)-3-oxo-2,3-dihydro-1H-benzo[e]isoindol-5-yl]methyl}-4-pyridin-2-ylpiperidine-4-carbonitrile], 650 nM.
Consider `Cc1ccnc(C2(C#N)CCN(Cc3cc4c(c5ccccc35)CN(c3ccccc3F)C4=O)CC2)c1` [Example 63, 1-{[2-(2-fluorophenyl)-3-oxo-2,3-dihydro-1H-benzo[e]isoindol-5-yl]methyl}-4-(4-methylpyridin-2-yl)piperidine-4-carbonitrile], for which the EC50 worked out at 545 nM.
Same read-out and setting: the result for `O=C1c2cc(CN3CCc4ccccc4C3c3ccncc3)c3ccccc3c2CN1c1ccccc1F` (stereo not drawn) [Example 65, 2-(2-fluorophenyl)-5-{[1-(pyridin-4-yl)-3,4-dihydroisoquinolin-2(1H)-yl]methyl}-1,2-dihydro-3H-benzo[e]isoindol-3-one] reads 1370 nM.

The same assay, now with this note: Table 2; CHOnfat/hM1 cells, FLIPR, EC20 acetylcholine (3 nM final); read-out: M1 Pot.
In the case of `CC1c2c(cc(CN3CCC(F)(c4ccccn4)CC3)c3cccnc23)C(=O)N1[C@@H]1CCCC[C@@H]1O` (stereo partly drawn) [Example 147, 5-[(4-fluoro-4-pyridin-2-ylpiperidin-1-yl)methyl]-8-[(1R,2S)-2-hydroxycyclohexyl]-9-methyl-8,9-dihydro-7H-pyrrolo[3,4-h]quinolin-7-one], the EC50 was 70 nM.
As for `CC1c2c(cc(CN3CCN(c4ccccn4)CC3)c3cccnc23)C(=O)N1C1CCCCC1O` (stereo not drawn) [Example 167, 8-(2-hydroxycyclohexyl)-9-methyl-5-[(4-pyridin-2-ylpiperazin-1-yl)methyl]-8,9-dihydro 7H-pyrrolo[3,4-h]quinolin-7-one], the EC50 was determined as 59 nM.
The same measure, in the same setting: the result for `N#CC1(Cc2ccncc2)CCN(Cc2cc3c(c4ncccc24)CN(C2CCCCC2O)C3=O)CC1` (stereo not drawn) [Example 135, 1-{[8-(2-hydroxycyclohexyl)-7-oxo-8,9-dihydro-7H-pyrrolo[3,4-h]quinolin-5-yl]methyl}-4-(pyridin-4-ylmethyl)piperidine-4-carbonitrile] reads 156 nM; that for `CC1c2c(cc(CN3CCC(F)(C#N)CC3)c3cccnc23)C(=O)N1C1CCCCC1O` (single isomer, unassigned) [Example 119, 4-fluoro-1-{[8-(2-hydroxycyclohexyl)-9-methyl-7-oxo-8,9-dihydro-7H-pyrrolo[3,4-h]quinolin-5-yl]methyl}piperidine-4-carbonitrile], 44 nM.
As to `CC1c2c(cc(CN3CCC(F)CC3)c3cccnc23)C(=O)N1[C@H]1CCCC[C@@H]1O` (stereo partly drawn) [Example 93, 5-[(4-fluoropiperidin-1-yl)methyl]-8-[(1S,2S)-2-hydroxycyclohexyl]-9-methyl-8,9-dihydro-7H-pyrrolo[3,4-h]quinolin-7-one], the EC50 turned out to be 70 nM.
Still for that read-out and setting: the result for `CCCC#CC1(F)CCN(Cc2cc3c(c4ncccc24)CN([C@H]2CCCC[C@@H]2O)C3=O)CC1` [Example 125, 5-[(4-fluoro-4-pent-1-yn-1-ylpiperidin-1-yl)methyl]-8-[(1S,2S)-2-hydroxycyclohexyl]-8,9-dihydro-7H-pyrrolo[3,4-h]quinolin-7-one] reads 130 nM; that for `O=C1c2cc(CN3CCN(c4ccncc4)CC3)c3cccnc3c2CN1C1CCCCC1O` (stereo not drawn) [Example 160, 8-(2-hydroxycyclohexyl)-5-[(4-pyridin-4-ylpiperazin-1-yl)methyl]-8,9-dihydro-7H-pyrrolo[3,4-h]quinolin-7-one], 110 nM.
